Tests used:
Settings in all cases: compound at 10 μM
Human δ-opioid (DOP) = target: T1, Human δ-opioid (DOP) (Homo sapiens, UniProt P41143); experiment: Radioligand binding, human δ-opioid (DOP) membranes, FlashPlate, [3H]-Bremazocine
T1 construct: purchased Perkin Elmer Biosignal
Summary of the method: (§1)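 Cloned human receptor membranes were coated onto FlashPlate wells and incubated with radioligand and compound (added from a 0.5 mM DMSO daughter plate) for 1 hour at room temperature in the dark. Scintillation counting gave percent inhibition, with DMSO defining total and reference ligand defining non-specific binding.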

Human melanocortin (MC5) = target: T2, Human melanocortin (MC5) (Homo sapiens, UniProt P33032); experiment: Radioligand binding, human melanocortin MC5 membranes, FlashPlate, [125I]-NDP-αMSH
T2 construct: purchased Perkin Elmer Biosignal
T2 sequence (P33032 whole entry): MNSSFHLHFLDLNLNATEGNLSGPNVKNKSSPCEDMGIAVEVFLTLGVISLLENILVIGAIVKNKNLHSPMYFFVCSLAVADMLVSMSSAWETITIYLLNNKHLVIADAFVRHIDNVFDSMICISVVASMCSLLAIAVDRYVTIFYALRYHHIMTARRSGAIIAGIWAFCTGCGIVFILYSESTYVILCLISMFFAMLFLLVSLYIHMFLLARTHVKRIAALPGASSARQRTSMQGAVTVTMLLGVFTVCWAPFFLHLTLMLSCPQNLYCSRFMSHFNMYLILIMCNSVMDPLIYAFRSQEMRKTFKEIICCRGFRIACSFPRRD
Summary of the method: as §1

Human opioid (ORL1) = target: T3, Human opioid (ORL1) (Homo sapiens, UniProt P41146); experiment: Radioligand binding, human opioid ORL1 membranes, FlashPlate, [125I]-Nociceptin
T3 construct: purchased Perkin Elmer Biosignal
T3 sequence (P41146 whole entry): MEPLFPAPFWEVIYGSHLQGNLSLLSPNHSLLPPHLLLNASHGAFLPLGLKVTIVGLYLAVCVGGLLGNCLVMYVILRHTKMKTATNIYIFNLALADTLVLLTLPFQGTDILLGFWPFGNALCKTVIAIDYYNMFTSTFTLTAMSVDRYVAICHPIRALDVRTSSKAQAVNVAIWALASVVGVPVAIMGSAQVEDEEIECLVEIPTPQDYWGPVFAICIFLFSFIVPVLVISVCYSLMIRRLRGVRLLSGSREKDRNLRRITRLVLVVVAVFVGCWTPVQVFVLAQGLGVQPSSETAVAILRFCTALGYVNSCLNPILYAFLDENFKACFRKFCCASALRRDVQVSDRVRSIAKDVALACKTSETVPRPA
Summary of the method: as §1

Human κ-Opioid (KOP) = target: T4, Human κ-Opioid (KOP) (Homo sapiens, UniProt P41145); experiment: Radioligand binding, human κ-opioid (KOP) membranes, filtration, [3H]-Diprenorphine
T4 construct: purchased Perkin Elmer Biosignal
T4 sequence (P41145 whole entry): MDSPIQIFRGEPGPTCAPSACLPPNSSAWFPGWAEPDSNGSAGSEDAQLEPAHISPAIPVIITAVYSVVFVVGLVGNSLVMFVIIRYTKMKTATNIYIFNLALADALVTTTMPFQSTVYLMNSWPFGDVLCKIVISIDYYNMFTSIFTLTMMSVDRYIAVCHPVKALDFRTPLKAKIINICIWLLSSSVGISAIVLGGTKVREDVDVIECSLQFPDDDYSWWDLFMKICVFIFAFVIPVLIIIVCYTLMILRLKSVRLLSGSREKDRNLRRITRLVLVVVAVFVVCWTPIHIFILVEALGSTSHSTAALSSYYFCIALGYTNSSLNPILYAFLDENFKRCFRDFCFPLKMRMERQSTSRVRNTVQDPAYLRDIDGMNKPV
Summary of the method: (§2)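 Percent inhibition of radioligand binding measured on recombinant human membranes: NK1 with [125I]-Substance P, KOP with [3H]-Diprenorphine. Incubation 1 h at room temperature, then harvest onto 0.3% PEI-soaked filters, cold Tris-HCl pH 7.4 washes and scintillation counting; non-specific binding from reference ligand wells.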

Human neurokinin (NK1) = target: T5, Human neurokinin (NK1) (Homo sapiens, UniProt P25103); experiment: Radioligand binding, human neurokinin NK1 membranes, filtration, [125I]-Substance P
T5 construct: purchased Perkin Elmer Biosignal
T5 sequence (P25103 whole entry): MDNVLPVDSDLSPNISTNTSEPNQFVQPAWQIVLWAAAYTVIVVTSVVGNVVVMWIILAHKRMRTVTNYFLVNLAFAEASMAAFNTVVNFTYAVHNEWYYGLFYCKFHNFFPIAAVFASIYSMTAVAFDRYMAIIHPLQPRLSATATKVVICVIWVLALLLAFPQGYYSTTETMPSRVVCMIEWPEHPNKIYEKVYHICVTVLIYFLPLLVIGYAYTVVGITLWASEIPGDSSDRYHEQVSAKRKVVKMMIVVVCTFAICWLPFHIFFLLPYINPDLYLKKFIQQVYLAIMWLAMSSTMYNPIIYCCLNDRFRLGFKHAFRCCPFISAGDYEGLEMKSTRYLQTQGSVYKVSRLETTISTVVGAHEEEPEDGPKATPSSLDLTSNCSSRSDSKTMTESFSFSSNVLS
Summary of the method: as §2

Human Melanocortin (MC3) = target: T6, Human Melanocortin (MC3) (Homo sapiens, UniProt P41968); experiment: Radioligand binding, human melanocortin MC3 membranes, FlashPlate, [125I]-NDP-αMSH
T6 construct: purchased Perkin Elmer Biosignal
T6 sequence (P41968 whole entry): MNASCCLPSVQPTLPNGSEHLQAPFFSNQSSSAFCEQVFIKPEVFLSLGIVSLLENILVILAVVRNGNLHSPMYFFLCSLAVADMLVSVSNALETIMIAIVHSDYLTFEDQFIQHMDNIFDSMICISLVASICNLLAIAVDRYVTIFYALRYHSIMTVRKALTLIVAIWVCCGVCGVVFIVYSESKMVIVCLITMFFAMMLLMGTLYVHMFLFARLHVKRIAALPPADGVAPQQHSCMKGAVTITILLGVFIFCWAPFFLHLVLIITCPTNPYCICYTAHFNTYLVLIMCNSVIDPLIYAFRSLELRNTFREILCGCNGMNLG
Summary of the method: as §1

Human μ-opioid (MOP) = target: T7, Human μ-opioid (MOP) (Homo sapiens, UniProt P35372); experiment: Radioligand binding, human μ-opioid (MOP) membranes, FlashPlate, [3H]-Naloxone
T7 construct: purchased Perkin Elmer Biosignal
T7 sequence (P35372 whole entry): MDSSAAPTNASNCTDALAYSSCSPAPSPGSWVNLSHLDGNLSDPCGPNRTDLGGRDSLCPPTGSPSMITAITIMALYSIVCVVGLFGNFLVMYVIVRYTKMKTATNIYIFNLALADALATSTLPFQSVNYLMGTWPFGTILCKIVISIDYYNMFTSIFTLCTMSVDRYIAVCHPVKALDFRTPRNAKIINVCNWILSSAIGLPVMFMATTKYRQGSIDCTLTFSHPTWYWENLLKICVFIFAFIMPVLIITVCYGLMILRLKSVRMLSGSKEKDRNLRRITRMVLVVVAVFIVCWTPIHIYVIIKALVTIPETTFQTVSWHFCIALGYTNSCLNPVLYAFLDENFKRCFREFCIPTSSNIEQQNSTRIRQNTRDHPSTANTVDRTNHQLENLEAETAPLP
Summary of the method: as §1

Mouse urotensin (mUR2) = target: T8, Mouse urotensin (mUR2) (Mus musculus, UniProt Q8VIH9); experiment: Radioligand binding, mouse urotensin mUR2 membranes, FlashPlate, [125I]-Urotensin II
T8 construct: purchased Perkin Elmer Biosignal
T8 sequence (Q8VIH9 1-385): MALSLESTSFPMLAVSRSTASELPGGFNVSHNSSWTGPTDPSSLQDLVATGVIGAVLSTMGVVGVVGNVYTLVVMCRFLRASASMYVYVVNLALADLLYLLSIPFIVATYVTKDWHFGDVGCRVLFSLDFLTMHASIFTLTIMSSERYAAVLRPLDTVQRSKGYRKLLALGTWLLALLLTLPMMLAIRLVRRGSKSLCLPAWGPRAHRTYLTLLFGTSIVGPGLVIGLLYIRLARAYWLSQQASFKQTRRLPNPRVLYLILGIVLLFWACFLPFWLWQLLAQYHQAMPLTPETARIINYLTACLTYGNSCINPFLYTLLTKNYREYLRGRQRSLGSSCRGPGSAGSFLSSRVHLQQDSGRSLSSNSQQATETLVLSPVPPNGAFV
Summary of the method: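 Cloned mouse urotensin (mUR2) receptor membranes from Perkin Elmer Biosignal were immobilized in FlashPlate microplates using a proprietary coating. Each well got 19.5 μl buffer, then 0.5 μl of DMSO, reference ligand, or compound. Adding 5 μl of [125I]-Urotensin II, diluted to 5× final concentration in binding buffer, started binding. Plates were sealed with TopSeal-A and incubated 1 hour at room temperature in the dark. Wells were counted for 30 seconds each on a TopCount after a 60-second delay, and percentage inhibition was calculated.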

Human Melanocortin (MC4) = target: T9, Human Melanocortin (MC4) (Homo sapiens, UniProt P32245); experiment: Radioligand binding, human melanocortin MC4 membranes, FlashPlate, [125I]-NDP-αMSH
T9 construct: purchased Perkin Elmer Biosignal
T9 sequence (P32245 whole entry): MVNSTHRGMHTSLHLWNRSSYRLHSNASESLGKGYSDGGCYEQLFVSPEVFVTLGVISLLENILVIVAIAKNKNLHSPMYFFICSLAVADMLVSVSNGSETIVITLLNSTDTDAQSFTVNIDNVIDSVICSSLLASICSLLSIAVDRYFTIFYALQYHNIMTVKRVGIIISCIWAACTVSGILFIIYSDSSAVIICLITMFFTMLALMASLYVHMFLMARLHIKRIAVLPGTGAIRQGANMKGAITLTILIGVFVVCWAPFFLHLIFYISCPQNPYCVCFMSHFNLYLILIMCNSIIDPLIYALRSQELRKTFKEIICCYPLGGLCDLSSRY
Summary of the method: as §1

[1] = target: T10, Human melanin-concentrating hormone (MCH1) (Homo sapiens, UniProt Q99705); experiment: Radioligand binding, human melanin-concentrating hormone MCH1 membranes, FlashPlate, [125I]-S36057
T10 construct: purchased Perkin Elmer Biosignal
T10 sequence (Q99705 whole entry): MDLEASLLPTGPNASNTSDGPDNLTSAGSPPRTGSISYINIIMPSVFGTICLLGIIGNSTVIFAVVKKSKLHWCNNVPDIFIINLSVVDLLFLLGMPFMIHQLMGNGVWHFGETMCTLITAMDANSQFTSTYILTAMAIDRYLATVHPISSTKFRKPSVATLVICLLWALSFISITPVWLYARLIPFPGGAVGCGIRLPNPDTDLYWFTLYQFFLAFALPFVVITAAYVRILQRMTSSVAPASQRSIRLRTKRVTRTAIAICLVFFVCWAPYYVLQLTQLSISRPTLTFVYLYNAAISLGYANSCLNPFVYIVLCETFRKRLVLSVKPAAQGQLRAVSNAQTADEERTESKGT
Summary of the method: as §1

[2] = target: T11, Human neuropeptide Y (NPY-Y1) (Homo sapiens, UniProt P25929); experiment: Radioligand binding, human neuropeptide Y NPY-Y1 membranes, FlashPlate, [125I]-PYY
T11 construct: purchased Perkin Elmer Biosignal
T11 sequence (P25929 1-384): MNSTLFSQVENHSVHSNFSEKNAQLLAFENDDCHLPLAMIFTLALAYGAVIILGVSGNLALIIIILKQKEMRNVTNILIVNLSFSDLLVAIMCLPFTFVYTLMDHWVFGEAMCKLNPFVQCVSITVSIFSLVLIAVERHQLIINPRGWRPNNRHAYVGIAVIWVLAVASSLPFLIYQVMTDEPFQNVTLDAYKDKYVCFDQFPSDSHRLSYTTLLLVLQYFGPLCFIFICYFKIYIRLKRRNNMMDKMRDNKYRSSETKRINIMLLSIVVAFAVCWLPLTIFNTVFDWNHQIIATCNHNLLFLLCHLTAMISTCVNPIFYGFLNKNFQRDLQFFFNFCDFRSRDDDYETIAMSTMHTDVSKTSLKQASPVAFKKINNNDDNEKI
Summary of the method: as §1

T1 sequence (P41143 whole entry): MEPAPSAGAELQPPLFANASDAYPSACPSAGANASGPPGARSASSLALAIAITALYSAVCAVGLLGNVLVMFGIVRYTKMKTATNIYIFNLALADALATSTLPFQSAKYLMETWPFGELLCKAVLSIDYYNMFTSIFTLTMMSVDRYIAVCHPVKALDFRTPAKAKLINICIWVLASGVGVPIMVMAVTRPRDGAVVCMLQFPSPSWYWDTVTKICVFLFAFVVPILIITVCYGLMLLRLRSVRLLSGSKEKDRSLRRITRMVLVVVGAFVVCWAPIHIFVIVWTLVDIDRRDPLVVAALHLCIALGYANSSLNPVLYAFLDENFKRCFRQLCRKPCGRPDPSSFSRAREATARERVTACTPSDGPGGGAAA

## CO[C@H]1[C@H](O)[C@@H](COCc2cccc(O)c2)OC(OCCc2ccccc2)[C@@H]1NC(=O)CCCN (stereo partly shown) [compound 160]
Human δ-opioid (DOP); [3H]-Bremazocine
  A1 radioligand binding, percentage inhibition: − (“−” indicates less than 50% inhibition at 10 μM)
Human melanocortin (MC5); [125I]-NDP-αMSH
  A5 radioligand binding, percentage inhibition: − (“−” indicates less than 50% inhibition at 10 μM)
Human opioid (ORL1); [125I]-Nociceptin
  A10 radioligand binding, percentage inhibition: − (“−” indicates less than 50% inhibition at 10 μM)
Human κ-Opioid (KOP); [3H]-Diprenorphine
  A2 radioligand binding, percentage inhibition: − (“−” indicates less than 50% inhibition at 10 μM)
Human neurokinin (NK1); [125I]-Substance P
  A8 radioligand binding, percentage inhibition: + (“+” indicates greater than 50% inhibition at 10 μM)
Human Melanocortin (MC3); [125I]-NDP-αMSH
  A3 radioligand binding, percentage inhibition: − (“−” indicates less than 50% inhibition at 10 μM)
Human μ-opioid (MOP); [3H]-Naloxone
  A7 radioligand binding, percentage inhibition: − (“−” indicates less than 50% inhibition at 10 μM)
Mouse urotensin (mUR2); [125I]-Urotensin II
  A11 radioligand binding, percentage inhibition: − (“−” indicates less than 50% inhibition at 10 μM)
Human Melanocortin (MC4); [125I]-NDP-αMSH
  A4 radioligand binding, percentage inhibition: − (“−” indicates less than 50% inhibition at 10 μM)
[1]; [125I]-S36057
  A6 radioligand binding, percentage inhibition: − (“−” indicates less than 50% inhibition at 10 μM)
[2]; [125I]-PYY
  A9 radioligand binding, percentage inhibition: − (“−” indicates less than 50% inhibition at 10 μM)

## CO[C@H]1[C@H](O)[C@@H](COCc2ccc(Cl)cc2)OC(OCc2ccc(Cl)cc2)[C@@H]1NC(=O)CNC(=N)N (stereo partly shown) [compound 105]
Human δ-opioid (DOP); [3H]-Bremazocine
  A1 radioligand binding, percentage inhibition: − (“−” indicates less than 50% inhibition at 10 μM)
Human melanocortin (MC5); [125I]-NDP-αMSH
  A5 radioligand binding, percentage inhibition: + (“+” indicates greater than 50% inhibition at 10 μM)
Human opioid (ORL1); [125I]-Nociceptin
  A10 radioligand binding, percentage inhibition: − (“−” indicates less than 50% inhibition at 10 μM)
Human κ-Opioid (KOP); [3H]-Diprenorphine
  A2 radioligand binding, percentage inhibition: − (“−” indicates less than 50% inhibition at 10 μM)
Human neurokinin (NK1); [125I]-Substance P
  A8 radioligand binding, percentage inhibition: + (“+” indicates greater than 50% inhibition at 10 μM)
Human Melanocortin (MC3); [125I]-NDP-αMSH
  A3 radioligand binding, percentage inhibition: − (“−” indicates less than 50% inhibition at 10 μM)
Human μ-opioid (MOP); [3H]-Naloxone
  A7 radioligand binding, percentage inhibition: − (“−” indicates less than 50% inhibition at 10 μM)
Mouse urotensin (mUR2); [125I]-Urotensin II
  A11 radioligand binding, percentage inhibition: − (“−” indicates less than 50% inhibition at 10 μM)
Human Melanocortin (MC4); [125I]-NDP-αMSH
  A4 radioligand binding, percentage inhibition: + (“+” indicates greater than 50% inhibition at 10 μM)
[1]; [125I]-S36057
  A6 radioligand binding, percentage inhibition: − (“−” indicates less than 50% inhibition at 10 μM)
[2]; [125I]-PYY
  A9 radioligand binding, percentage inhibition: − (“−” indicates less than 50% inhibition at 10 μM)

## COC[C@H]1OC(OCc2ccc(-c3ccccc3)cc2)[C@H](NC(=O)CCNC(=N)N)[C@@H](OCc2ccccc2)[C@@H]1O (stereo partly shown) [compound 7]
Human δ-opioid (DOP); human δ-opioid (DOP) membranes
  A1 radioligand binding inhibition: − (“−” indicates less than 50% inhibition at 10 μM)
Human melanocortin (MC5); human melanocortin MC5 membranes
  A5 radioligand binding inhibition: − (“−” indicates less than 50% inhibition at 10 μM)
Human opioid (ORL1); human ORL1 membranes
  A10 radioligand binding inhibition: − (“−” indicates less than 50% inhibition at 10 μM)
Human κ-Opioid (KOP); human κ-opioid (KOP) membranes
  A2 radioligand binding inhibition: − (“−” indicates less than 50% inhibition at 10 μM)
Human neurokinin (NK1); human neurokinin NK1 membranes
  A8 radioligand binding inhibition: + (“+” indicates greater than 50% inhibition at 10 μM)
Human Melanocortin (MC3); human melanocortin MC3 membranes
  A3 radioligand binding inhibition: − (“−” indicates less than 50% inhibition at 10 μM)
Human μ-opioid (MOP); human μ-opioid (MOP) membranes
  A7 radioligand binding inhibition: + (“+” indicates greater than 50% inhibition at 10 μM)
Mouse urotensin (mUR2); mouse urotensin mUR2 membranes
  A11 radioligand binding inhibition: − (“−” indicates less than 50% inhibition at 10 μM)
Human Melanocortin (MC4); human melanocortin MC4 membranes
  A4 radioligand binding inhibition: − (“−” indicates less than 50% inhibition at 10 μM)
[1]; human MCH1 membranes
  A6 radioligand binding inhibition: + (“+” indicates greater than 50% inhibition at 10 μM)
[2]; human NPY-Y1 membranes
  A9 radioligand binding inhibition: − (“−” indicates less than 50% inhibition at 10 μM)

## CO[C@H]1[C@H](O)[C@@H](COCc2ccc3ccccc3c2)OC(OCc2ccc(Cl)cc2)[C@@H]1NC(=O)CNC(=N)N (stereo partly shown) [compound 355]
Human δ-opioid (DOP); [3H]-Bremazocine
  A1: inhibition of radioligand binding, human δ-opioid (DOP): − (“−” indicates less than 50% inhibition at 10 μM)
Human melanocortin (MC5); [125I]-NDP-αMSH
  A5: inhibition of radioligand binding, human melanocortin (MC5): + (“+” indicates greater than 50% inhibition at 10 μM)
Human opioid (ORL1); [125I]-Nociceptin
  A10: inhibition of radioligand binding, human opioid (ORL1): − (“−” indicates less than 50% inhibition at 10 μM)
Human κ-Opioid (KOP); [3H]-Diprenorphine
  A2: inhibition of radioligand binding, human κ-opioid (KOP): − (“−” indicates less than 50% inhibition at 10 μM)
Human neurokinin (NK1); [125I]-Substance P
  A8: inhibition of radioligand binding, human neurokinin (NK1): + (“+” indicates greater than 50% inhibition at 10 μM)
Human Melanocortin (MC3); [125I]-NDP-αMSH
  A3: inhibition of radioligand binding, human melanocortin (MC3): − (“−” indicates less than 50% inhibition at 10 μM)
Human μ-opioid (MOP); [3H]-Naloxone
  A7: inhibition of radioligand binding, human μ-opioid (MOP): − (“−” indicates less than 50% inhibition at 10 μM)
Mouse urotensin (mUR2); [125I]-Urotensin II
  A11: inhibition of radioligand binding, mouse urotensin (mUR2): − (“−” indicates less than 50% inhibition at 10 μM)
Human Melanocortin (MC4); [125I]-NDP-αMSH
  A4: inhibition of radioligand binding, human melanocortin (MC4): + (“+” indicates greater than 50% inhibition at 10 μM)
[1]; [125I]-S36057
  A6: inhibition of radioligand binding, human melanin-concentrating hormone (MCH1): − (“−” indicates less than 50% inhibition at 10 μM)
[2]; [125I]-PYY
  A9: inhibition of radioligand binding, human neuropeptide Y (NPY-Y1): − (“−” indicates less than 50% inhibition at 10 μM)

## NCCCC(=O)NC1C(OCc2ccc3ccccc3c2)OC(COCc2ccccc2)C(O)C1OCc1ccc2ccccc2c1 (stereo not shown) [compound 394]
Human δ-opioid (DOP); [3H]-Bremazocine, human DOP membranes
  A1: inhibition of radioligand binding: − (“−” indicates less than 50% inhibition at 10 μM)
Human melanocortin (MC5); [125I]-NDP-αMSH, human MC5 membranes
  A5: inhibition of radioligand binding: + (“+” indicates greater than 50% inhibition at 10 μM)
Human opioid (ORL1); [125I]-Nociceptin, human ORL1 membranes, 10 µM
  A10: inhibition of radioligand binding: − (“−” indicates less than 50% inhibition at 10 μM)
Human κ-Opioid (KOP); [3H]-Diprenorphine, human KOP membranes
  A2: inhibition of radioligand binding: − (“−” indicates less than 50% inhibition at 10 μM)
Human neurokinin (NK1); [125I]-Substance P, human NK1 membranes
  A8: inhibition of radioligand binding: + (“+” indicates greater than 50% inhibition at 10 μM)
Human Melanocortin (MC3); [125I]-NDP-αMSH, human MC3 membranes, 10 µM
  A3: inhibition of radioligand binding: + (“+” indicates greater than 50% inhibition at 10 μM)
Human μ-opioid (MOP); [3H]-Naloxone, human MOP membranes
  A7: inhibition of radioligand binding: − (“−” indicates less than 50% inhibition at 10 μM)
Mouse urotensin (mUR2); [125I]-Urotensin II, mouse mUR2 membranes
  A11: inhibition of radioligand binding: − (“−” indicates less than 50% inhibition at 10 μM)
Human Melanocortin (MC4); [125I]-NDP-αMSH, human MC4 membranes, 10 µM
  A4: inhibition of radioligand binding: + (“+” indicates greater than 50% inhibition at 10 μM)
[1]; [125I]-S36057, human MCH1 membranes
  A6: inhibition of radioligand binding: − (“−” indicates less than 50% inhibition at 10 μM)
[2]; [125I]-PYY, human NPY-Y1 membranes
  A9: inhibition of radioligand binding: − (“−” indicates less than 50% inhibition at 10 μM)
